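96-well plates; 48 h exposure; 5 concentrations. Endpoints by linear interpolation between flanking doses. Not reached: highest tested concentration assigned. TGI marks complete inhibition of growth.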
What was measured:
Experiment in all cases: inhibition of tumour cell growth, NCI panel, 48 h
NCI-H522 lung = test system: NCI-H522 lung
NCI-H460 lung = test system: NCI-H460 lung
SK-OV-3 ovarian = test system: SK-OV-3 ovarian
IGROV1 ovarian = test system: IGROV1 ovarian
DMS 114 small cell lung = test system: DMS 114 small cell lung
HL-60(TB) leukemia = test system: HL-60(TB) leukemia
SW-620 colon = test system: SW-620 colon
SK-MEL-28 melanoma = test system: SK-MEL-28 melanoma
HCC-2998 colon = test system: HCC-2998 colon
M19-MEL melanoma = test system: M19-MEL melanoma
OVCAR-4 ovarian = test system: OVCAR-4 ovarian
SNB-75 CNS = test system: SNB-75 CNS
SF-295 CNS = test system: SF-295 CNS
TK-10 renal = test system: TK-10 renal
DMS 273 small cell lung = test system: DMS 273 small cell lung
SK-MEL-2 melanoma = test system: SK-MEL-2 melanoma
HOP-18 NSCLC = test system: HOP-18 NSCLC
SR leukemia = test system: SR leukemia
UACC-62 melanoma = test system: UACC-62 melanoma
786-0 renal = test system: 786-0 renal
HCT-116 colon = test system: HCT-116 colon
LXFL 529 NSCLC = test system: LXFL 529 NSCLC
MOLT-4 leukemia = test system: MOLT-4 leukemia
HOP-92 NSCLC = test system: HOP-92 NSCLC
SF-268 CNS = test system: SF-268 CNS
MALME-3M melanoma = test system: MALME-3M melanoma
K-562 leukemia = test system: K-562 leukemia
CAKI-1 renal = test system: CAKI-1 renal
U251 CNS = test system: U251 CNS
SK-MEL-5 melanoma = test system: SK-MEL-5 melanoma
M14 melanoma = test system: M14 melanoma
NCI-H226 lung = test system: NCI-H226 lung
UACC-257 melanoma = test system: UACC-257 melanoma
COLO 205 colon = test system: COLO 205 colon
SNB-78 CNS = test system: SNB-78 CNS
HT29 colon = test system: HT29 colon
ACHN renal = test system: ACHN renal
HOP-62 NSCLC = test system: HOP-62 NSCLC
SN12C renal = test system: SN12C renal
NCI-H23 lung = test system: NCI-H23 lung
HCT-15 colon = test system: HCT-15 colon
UO-31 renal = test system: UO-31 renal
EKVX NSCLC = test system: EKVX NSCLC
DLD-1 colon = test system: DLD-1 colon
SNB-19 CNS = test system: SNB-19 CNS
OVCAR-8 ovarian = test system: OVCAR-8 ovarian
OVCAR-3 ovarian = test system: OVCAR-3 ovarian
A549 NSCLC = test system: A549 NSCLC
OVCAR-5 ovarian = test system: OVCAR-5 ovarian
KM20L2 colon = test system: KM20L2 colon
KM12 colon = test system: KM12 colon
SF-539 CNS = test system: SF-539 CNS
CCRF-CEM leukemia = test system: CCRF-CEM leukemia
RXF 393 renal = test system: RXF 393 renal
A498 renal = test system: A498 renal
RPMI-8226 leukemia = test system: RPMI-8226 leukemia

Q: Which results are given for `Cc1ccc2nc3cc(C)c(=O)cc-3sc2c1`?
A: TGI (NCI-H522 lung): > 100 µM; TGI (NCI-H460 lung): > 100 µM; TGI (SK-OV-3 ovarian): > 100 µM; TGI (IGROV1 ovarian): > 100 µM; TGI (DMS 114 small cell lung): > 100 µM; TGI (HL-60(TB) leukemia): 64.7 µM; TGI (SW-620 colon): > 100 µM; TGI (SK-MEL-28 melanoma): > 100 µM; TGI (HCC-2998 colon): > 100 µM; TGI (M19-MEL melanoma): 30.7 µM; TGI (OVCAR-4 ovarian): > 100 µM; TGI (SNB-75 CNS): 84.9 µM; TGI (SF-295 CNS): > 100 µM; TGI (TK-10 renal): > 100 µM; TGI (DMS 273 small cell lung): > 100 µM; TGI (SK-MEL-2 melanoma): > 100 µM; TGI (HOP-18 NSCLC): > 100 µM; TGI (SR leukemia): > 100 µM; TGI (UACC-62 melanoma): 82.8 µM; TGI (786-0 renal): > 100 µM; TGI (HCT-116 colon): > 100 µM; TGI (LXFL 529 NSCLC): > 100 µM; TGI (MOLT-4 leukemia): > 100 µM; TGI (HOP-92 NSCLC): > 100 µM; TGI (SF-268 CNS): > 100 µM; TGI (MALME-3M melanoma): > 100 µM; TGI (K-562 leukemia): > 100 µM; TGI (CAKI-1 renal): > 100 µM; TGI (U251 CNS): > 100 µM; TGI (SK-MEL-5 melanoma): > 100 µM; TGI (M14 melanoma): > 100 µM; TGI (NCI-H226 lung): > 100 µM; TGI (UACC-257 melanoma): > 100 µM; TGI (COLO 205 colon): > 100 µM; TGI (SNB-78 CNS): > 100 µM; TGI (HT29 colon): > 100 µM; TGI (ACHN renal): > 100 µM; TGI (HOP-62 NSCLC): > 100 µM; TGI (SN12C renal): > 100 µM; TGI (NCI-H23 lung): > 100 µM; TGI (HCT-15 colon): > 100 µM; TGI (UO-31 renal): > 100 µM; TGI (EKVX NSCLC): > 100 µM; TGI (DLD-1 colon): > 100 µM; TGI (SNB-19 CNS): > 100 µM; TGI (OVCAR-8 ovarian): > 100 µM; TGI (OVCAR-3 ovarian): > 100 µM; TGI (A549 NSCLC): > 100 µM; TGI (OVCAR-5 ovarian): > 100 µM; TGI (KM20L2 colon): > 100 µM; TGI (KM12 colon): > 100 µM; TGI (SF-539 CNS): > 100 µM; TGI (CCRF-CEM leukemia): 45.2 µM

Q: Which TGI (NCI-H522 lung) does the source give for `Cc1nc(/C=C2\C(=O)C=Cc3ccccc32)c(O)o1` here?
A: > 100 µM

Q: What about the TGI (NCI-H460 lung) of the same compound?
A: > 100 µM

Q: And the TGI (IGROV1 ovarian)?
A: > 100 µM

Q: And the TGI (DMS 114 small cell lung)?
A: > 100 µM

Q: And the TGI (RXF 393 renal)?
A: > 100 µM

Q: What about the TGI (HL-60(TB) leukemia) of the same compound?
A: > 100 µM

Q: And the TGI (SW-620 colon)?
A: > 100 µM

Q: And the TGI (SK-MEL-28 melanoma)?
A: > 100 µM

Q: And the TGI (HCC-2998 colon)?
A: > 100 µM

Q: And the TGI (M19-MEL melanoma)?
A: > 100 µM

Q: What about the TGI (OVCAR-4 ovarian) of the same compound?
A: > 100 µM

Q: And the TGI (SNB-75 CNS)?
A: 40.4 µM

Q: What about the TGI (SF-295 CNS) of the same compound?
A: > 100 µM

Q: What about the TGI (SK-MEL-2 melanoma) of the same compound?
A: > 100 µM

Q: And the TGI (HOP-18 NSCLC)?
A: > 100 µM

Q: What about the TGI (UACC-62 melanoma) of the same compound?
A: > 100 µM

Q: What about the TGI (786-0 renal) of the same compound?
A: > 100 µM

Q: And the TGI (HCT-116 colon)?
A: > 100 µM

Q: And the TGI (LXFL 529 NSCLC)?
A: > 100 µM

Q: And the TGI (MOLT-4 leukemia)?
A: > 100 µM

Q: What about the TGI (HOP-92 NSCLC) of the same compound?
A: > 100 µM

Q: What about the TGI (A498 renal) of the same compound?
A: > 100 µM

Q: And the TGI (SF-268 CNS)?
A: > 100 µM

Q: What about the TGI (MALME-3M melanoma) of the same compound?
A: > 100 µM

Q: What about the TGI (K-562 leukemia) of the same compound?
A: > 100 µM

Q: And the TGI (U251 CNS)?
A: > 100 µM

Q: What about the TGI (SK-MEL-5 melanoma) of the same compound?
A: > 100 µM

Q: What about the TGI (M14 melanoma) of the same compound?
A: > 100 µM

Q: What about the TGI (UACC-257 melanoma) of the same compound?
A: > 100 µM

Q: What about the TGI (COLO 205 colon) of the same compound?
A: > 100 µM

Q: And the TGI (SNB-78 CNS)?
A: > 100 µM

Q: And the TGI (HT29 colon)?
A: > 100 µM

Q: And the TGI (ACHN renal)?
A: > 100 µM

Q: What about the TGI (HOP-62 NSCLC) of the same compound?
A: > 100 µM

Q: What about the TGI (SN12C renal) of the same compound?
A: > 100 µM

Q: And the TGI (NCI-H23 lung)?
A: > 100 µM

Q: What about the TGI (HCT-15 colon) of the same compound?
A: > 100 µM

Q: What about the TGI (RPMI-8226 leukemia) of the same compound?
A: > 100 µM

Q: And the TGI (UO-31 renal)?
A: > 100 µM

Q: What about the TGI (EKVX NSCLC) of the same compound?
A: > 100 µM

Q: What about the TGI (DLD-1 colon) of the same compound?
A: > 100 µM

Q: And the TGI (SNB-19 CNS)?
A: > 100 µM

Q: What about the TGI (OVCAR-8 ovarian) of the same compound?
A: > 100 µM

Q: What about the TGI (A549 NSCLC) of the same compound?
A: > 100 µM

Q: And the TGI (OVCAR-5 ovarian)?
A: > 100 µM

Q: What about the TGI (KM20L2 colon) of the same compound?
A: > 100 µM

Q: What about the TGI (KM12 colon) of the same compound?
A: > 100 µM

Q: What about the TGI (SF-539 CNS) of the same compound?
A: > 100 µM

Q: What about the TGI (CCRF-CEM leukemia) of the same compound?
A: > 100 µM
